Laboratory results taken from publication PMC3476531, “Synergy of Peptide and Sugar in O-GlcNAcase Substrate Recognition” (Chemistry & Biology, 2012).
Numbering of substitutions follows the chain as printed. Where two headings read alike, the source gives them in different places.

Legend:
hOGA Y69F = target: T1, hOGA Y69F (Homo sapiens, UniProt O60502, Y69F); experiment: hOGA Y69F mutant glycopeptide hydrolysis, substrate competition assay; type: biochemical; conditions: hOGA point mutant Y69F; competition with 4MU-GlcNAc; 37°C, pH 7.4; triplicate; read-out: Michaelis constant (KM) for hOGA Y69F
T1 construct: GST (N); made in house; host or cells: transiently transfected HEK293 cells
T1 sequence (O60502 1-916 Y69F): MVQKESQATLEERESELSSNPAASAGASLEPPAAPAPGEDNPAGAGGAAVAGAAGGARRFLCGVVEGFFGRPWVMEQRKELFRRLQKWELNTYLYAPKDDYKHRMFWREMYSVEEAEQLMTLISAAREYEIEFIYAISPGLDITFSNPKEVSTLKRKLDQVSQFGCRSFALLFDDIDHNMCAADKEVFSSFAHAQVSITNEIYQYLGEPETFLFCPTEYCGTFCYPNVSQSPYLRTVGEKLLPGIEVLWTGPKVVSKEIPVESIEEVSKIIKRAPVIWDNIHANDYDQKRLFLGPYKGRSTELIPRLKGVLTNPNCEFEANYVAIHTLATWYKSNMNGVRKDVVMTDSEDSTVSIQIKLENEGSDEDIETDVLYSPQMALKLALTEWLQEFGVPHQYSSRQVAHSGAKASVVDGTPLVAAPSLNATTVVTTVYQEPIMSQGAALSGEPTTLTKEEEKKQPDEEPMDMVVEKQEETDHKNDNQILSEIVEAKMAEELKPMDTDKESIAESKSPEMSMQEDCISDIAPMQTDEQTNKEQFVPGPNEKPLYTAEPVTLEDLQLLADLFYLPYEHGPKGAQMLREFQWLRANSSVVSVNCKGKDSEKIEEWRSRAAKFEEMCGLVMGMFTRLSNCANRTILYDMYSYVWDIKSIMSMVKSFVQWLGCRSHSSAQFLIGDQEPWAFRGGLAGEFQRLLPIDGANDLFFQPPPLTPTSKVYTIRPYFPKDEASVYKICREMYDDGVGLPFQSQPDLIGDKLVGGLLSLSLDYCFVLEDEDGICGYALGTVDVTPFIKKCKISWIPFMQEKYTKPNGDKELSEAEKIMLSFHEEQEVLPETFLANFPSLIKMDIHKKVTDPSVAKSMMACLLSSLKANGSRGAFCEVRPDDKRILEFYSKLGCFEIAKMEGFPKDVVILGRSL

hOGA [1] = target: T2, hOGA (Homo sapiens, UniProt O60502); experiment: hOGA glycopeptide hydrolysis, substrate competition assay with 4MU-GlcNAc reporter; type: biochemical; set-up: GST (N); made in house; host or cells: transiently transfected HEK293 cells; conditions: wild-type full-length hOGA, competition with 4MU-GlcNAc reporter substrate, 37°C, 50 mM citrate-phosphate buffer pH 7.4, 0.1 mg/ml BSA, triplicate, ± error of curve-fit, read-out: Michaelis constant (KM) of glycopeptide substrate for hOGA
T2 sequence (O60502 1-916): T1 sequence (O60502 1-916 Y69F) with F69Y
Experimental: Protein was expressed in transiently transfected HEK293 cells and purified via glutathione sepharose affinity chromatography.
hOGA and CpOGA glycopeptide hydrolysis assays were carried out as described previously ([Dorfmueller et al., 2006; Schimpl et al., 2010]) using multisubstrate enzyme kinetics with the fluorigenic pseudosubstrate 4MU-GlcNAc as the reporter substrate. […] Reactions were performed at 37°C in 50 mM citrate-phosphate buffer (pH 7.4) and 0.1 mg/ml BSA. Experiments were performed in triplicate, and data were analyzed and plotted with GraphPad PRISM.

hOGA [2] = target: T2, hOGA; set-up: GST (N); made in house; conditions: wild-type hOGA; substrate competition assay with 4MU-GlcNAc; value reproduced from earlier paper; ref Schimpl et al., 2010; read-out: Michaelis constant (KM) of glycopeptide substrate for hOGA; cited from earlier work
From the text: Table 1 Hydrophobic Stacking Interactions of Tyr69 Are Essential for Substrate Binding by hOGA | column: hOGA Peptide / VAHS(O-GlcNAc)GAK || Table 2 Intramolecular Hydrogen Bonds Stabilize the Substrate Conformation and Reduce the Km for hOGA | column: TAB1 Peptide (Ser395) || Figure 1 OGA Binds Different O-GlcNAc Glycopeptides with Similar Conformation but Different Affinities (A) Origin and sequence of O-GlcNAc peptides. The sequence of the longest peptides used is given, with residues observed in the crystal structure highlighted by colored boxes, and the shorter peptides indicated by brackets.

| Substance | Km (hOGA Y69F) [µM] | Km (hOGA [1]; listed as PVSVPYS(O-GlcNAc)SAQSTS) [µM] | Km (hOGA [1]) [µM] | Km (hOGA [2]) [µM] |
| --- | --- | --- | --- | --- |
| PVSVPYS(O-GlcNAc)SAQSTS [TAB1 (Ser395) 13, 13-residue O-GlcNAc glycopeptide derived from TAB1 Ser395 site] | 1100 | 940 ± 80 | 900 ± 30 |  |
| VAHS(O-GlcNAc)GAK [hOGA (Ser405) 7, 7-residue O-GlcNAc glycopeptide derived from hOGA Ser405 site] | 1200 |  |  | 790 ± 40 |
| p53 (Ser149) 11: 11-residue O-GlcNAc glycopeptide derived from p53 Ser149 site | 53 ± 5 |  | 21 ± 3 |  |
